Reference: the NIST ThermoML archive (doi:10.1021/je200806n)

Experiment: xn = mol fraction of the nth substance listed
Details: 101.3 kPa, Liquid

CCCCCC(C)O (centres undefined) [2-heptanol] + O=C1CCCCC1
Details | mass density, 298.15 K [kg/m3] | mass density, 303.15 K [kg/m3] | mass density, 308.15 K [kg/m3] | mass density, 313.15 K [kg/m3] | viscosity, 298.15 K [mPa·s] | viscosity, 303.15 K [mPa·s] | viscosity, 308.15 K [mPa·s] | viscosity, 313.15 K [mPa·s]
x2 = 0 | 813.18 | 809.26 | 805.01 | 801.14 | 5.023 | 4.151 | 3.478 | 2.852
x2 = 0.0826 | 820.37 | 816.21 | 811.69 | 807.61 | 4.282 | 3.546 | 2.94 | 2.412
x2 = 0.1625 | 827.64 | 823.36 | 818.81 | 814.53 | 3.64 | 2.986 | 2.448 | 1.989
x2 = 0.2415 | 835.26 | 830.91 | 826.28 | 821.87 | 3.081 | 2.473 | 1.999 | 1.604
x2 = 0.3506 | 846.69 | 842.19 | 837.46 | 832.94 | 2.401 | 1.874 | 1.482 | 1.151
x2 = 0.44 | 856.83 | 852.22 | 847.44 | 842.79 | 1.954 | 1.468 | 1.141 | 0.862
x2 = 0.5603 | 871.72 | 866.99 | 862.12 | 857.35 | 1.513 | 1.107 | 0.849 | 0.627
x2 = 0.6494 | 883.79 | 878.98 | 874.11 | 869.26 | 1.308 | 0.971 | 0.773 | 0.576
x2 = 0.7394 | 896.96 | 892.15 | 887.29 | 882.32 | 1.243 | 0.976 | 0.816 | 0.647
x2 = 0.85 | 914.67 | 909.91 | 905.04 | 900.06 | 1.391 | 1.193 | 1.054 | 0.91
x2 = 0.9392 | 930.26 | 925.58 | 920.79 | 915.85 | 1.727 | 1.535 | 1.411 | 1.256

CCCCC(C)O (centres undefined) [2-hexanol] + O=C1CCCCC1
Details | mass density, 298.15 K [kg/m3] | mass density, 303.15 K [kg/m3] | mass density, 308.15 K [kg/m3] | mass density, 313.15 K [kg/m3] | viscosity, 298.15 K [mPa·s] | viscosity, 303.15 K [mPa·s] | viscosity, 308.15 K [mPa·s] | viscosity, 313.15 K [mPa·s]
x2 = 0 | 810.14 | 806.13 | 802.06 | 797.96 | 4.101 | 3.411 | 2.819 | 2.219
x2 = 0.0821 | 818.43 | 814.12 | 809.89 | 805.91 | 3.432 | 2.834 | 2.278 | 1.686
x2 = 0.1612 | 826.61 | 822.29 | 818.07 | 814.07 | 2.879 | 2.346 | 1.823 | 1.307
x2 = 0.2409 | 835.25 | 830.81 | 826.44 | 822.41 | 2.406 | 1.932 | 1.453 | 1.024
x2 = 0.3496 | 847.88 | 843.37 | 838.88 | 834.71 | 1.896 | 1.477 | 1.122 | 0.781
x2 = 0.4391 | 858.93 | 854.32 | 849.76 | 845.48 | 1.591 | 1.23 | 0.949 | 0.679
x2 = 0.56 | 874.62 | 869.92 | 865.28 | 860.83 | 1.359 | 1.08 | 0.873 | 0.655
x2 = 0.649 | 886.88 | 882.07 | 877.39 | 872.97 | 1.325 | 1.082 | 0.907 | 0.727
x2 = 0.7391 | 899.87 | 895.12 | 890.41 | 885.97 | 1.388 | 1.173 | 1.026 | 0.85
x2 = 0.8492 | 916.79 | 912.01 | 907.19 | 902.71 | 1.576 | 1.4 | 1.249 | 1.068
x2 = 0.9395 | 931.44 | 926.63 | 921.93 | 917.21 | 1.842 | 1.662 | 1.505 | 1.326

CCC(C)O (centres undefined) [butan-2-ol] + O=C1CCCCC1
x2 = 0
Details | mass density [kg/m3] | viscosity [mPa·s]
298.15 K | 803.01 | 3.104
303.15 K | 798.29 | 2.597
308.15 K | 793.57 | 2.152
313.15 K | 789.15 | 1.733

O=C1CCCCC1 [cyclohexanone] + CC(C)O
Details | mass density, 298.15 K [kg/m3] | mass density, 303.15 K [kg/m3] | mass density, 308.15 K [kg/m3] | mass density, 313.15 K [kg/m3] | viscosity, 298.15 K [mPa·s] | viscosity, 303.15 K [mPa·s] | viscosity, 308.15 K [mPa·s] | viscosity, 313.15 K [mPa·s]
x1 = 0.0812 | 797.69 | 792.97 | 788.11 | 783.28 | 1.689 | 1.489 | 1.301 | 1.142
x1 = 0.1576 | 812.54 | 807.67 | 802.73 | 797.79 | 1.436 | 1.268 | 1.098 | 0.961
x1 = 0.2398 | 827.76 | 822.83 | 817.68 | 812.71 | 1.236 | 1.081 | 0.934 | 0.817
x1 = 0.3495 | 846.99 | 841.93 | 836.59 | 831.76 | 1.067 | 0.934 | 0.809 | 0.715
x1 = 0.4363 | 861.43 | 856.27 | 851.05 | 846.26 | 1.023 | 0.899 | 0.779 | 0.689
x1 = 0.5601 | 880.96 | 875.76 | 870.51 | 865.33 | 1.076 | 0.951 | 0.845 | 0.751
x1 = 0.6502 | 894.41 | 889.21 | 884.09 | 878.95 | 1.177 | 1.056 | 0.949 | 0.854
x1 = 0.7403 | 907.32 | 902.15 | 897.23 | 892.17 | 1.331 | 1.202 | 1.087 | 0.995
x1 = 0.8481 | 922.15 | 917.06 | 912.28 | 907.09 | 1.581 | 1.437 | 1.301 | 1.211
x1 = 0.9384 | 934.01 | 929.05 | 924.41 | 919.35 | 1.845 | 1.675 | 1.537 | 1.412
x1 = 1 | 941.91 | 937.24 | 932.67 | 927.72 | 2.057 | 1.847 | 1.694 | 1.546

O=C1CCCCC1 [cyclohexanone] + CCC(C)O
Details | mass density, 298.15 K [kg/m3] | mass density, 303.15 K [kg/m3] | mass density, 308.15 K [kg/m3] | mass density, 313.15 K [kg/m3] | viscosity, 298.15 K [mPa·s] | viscosity, 303.15 K [mPa·s] | viscosity, 308.15 K [mPa·s] | viscosity, 313.15 K [mPa·s]
x1 = 0.0814 | 814.99 | 811.03 | 805.17 | 800.53 | 2.511 | 2.163 | 1.828 | 1.441
x1 = 0.1598 | 826.39 | 822.21 | 816.34 | 811.48 | 2.067 | 1.82 | 1.561 | 1.186
x1 = 0.2444 | 838.54 | 834.13 | 828.18 | 823.15 | 1.737 | 1.535 | 1.33 | 0.982
x1 = 0.3514 | 853.71 | 849.09 | 843.19 | 838.01 | 1.472 | 1.305 | 1.128 | 0.841
x1 = 0.4404 | 866.19 | 861.39 | 855.62 | 850.33 | 1.361 | 1.206 | 1.039 | 0.794
x1 = 0.5596 | 882.62 | 877.71 | 872.19 | 866.91 | 1.332 | 1.183 | 1.036 | 0.825
x1 = 0.6523 | 895.31 | 890.36 | 884.99 | 879.69 | 1.4 | 1.249 | 1.108 | 0.914
x1 = 0.738 | 906.94 | 901.93 | 896.81 | 891.52 | 1.501 | 1.354 | 1.224 | 1.051
x1 = 0.8494 | 921.86 | 916.99 | 912.09 | 907.01 | 1.704 | 1.558 | 1.41 | 1.248
x1 = 0.9361 | 933.34 | 928.57 | 924.04 | 918.99 | 1.889 | 1.716 | 1.572 | 1.43
x1 = 1 | 941.91 | 937.24 | 932.67 | 927.72 | 2.057 | 1.847 | 1.694 | 1.546

O=C1CCCCC1 [cyclohexanone] + CCCC(C)O
x1 = 1
Details | mass density [kg/m3] | viscosity [mPa·s]
298.15 K | 941.91 | 2.057
303.15 K | 937.24 | 1.847
308.15 K | 932.67 | 1.694
313.15 K | 927.72 | 1.546

O=C1CCCCC1 [cyclohexanone] + CCCCC(C)O
x1 = 1
Details | mass density [kg/m3] | viscosity [mPa·s]
298.15 K | 941.91 | 2.057
303.15 K | 937.24 | 1.847
308.15 K | 932.67 | 1.694
313.15 K | 927.72 | 1.546

O=C1CCCCC1 [cyclohexanone] + CCCCCC(C)O
x1 = 1
Details | mass density [kg/m3] | viscosity [mPa·s]
298.15 K | 941.91 | 2.057
303.15 K | 937.24 | 1.847
308.15 K | 932.67 | 1.694
313.15 K | 927.72 | 1.546
